Results published in ChEMBL document CHEMBL1133442, “Symmetrical bis(heteroarylmethoxyphenyl)alkylcarboxylic acids as inhibitors of leukotriene biosynthesis” (J Med Chem, 2000).

Columns and labels:
Type in all cases: functional
Homo sapiens [1] = species on record: Homo sapiens; test: Inhibition of calcium ionophore (A-23187) stimulated leukotriene B4 (LTB4) formation in human neutrophils at 390 nM
Rattus norvegicus [2] = test: Inhibition of leukotriene production in an ionophore-induced rat pleurisy model at 3 mg/kg; conditions: for inhibition in vivo at 3 mg/kg: Rattus norvegicus
Rattus norvegicus [3] = test: In vivo inhibition evaluation of leukotriene inhibition in an ionophore-induced rat pleurisy at 3 mg/kg
Homo sapiens [4] = species on record: Homo sapiens; test: Inhibition of calcium ionophore (A-23187) -stimulated leukotriene B4 (LTB4) formation in human neutrophils at 390 nM

IC50 (Homo sapiens [1]; Homo sapiens) [nM] | Structure (SMILES) | inhibition in vivo at 3 mg/kg (Rattus norvegicus [2]) [%] | also measured
60 | O=C(O)C(c1ccc(OCc2ccc3ccccc3n2)cc1)c1ccc(OCc2ccc3ccccc3n2)cc1 |  | 
30 | CC(CCCO/N=C/C(=O)O)(c1ccc(OCc2ccc3ccccc3n2)cc1)c1ccc(OCc2ccc3ccccc3n2)cc1 | 0 | 
50 | O=C(O)C=C(c1ccc(OCc2ccc3ccccc3n2)cc1)c1ccc(OCc2ccc3ccccc3n2)cc1 | 11 | 
34 | CC(C)(CO/N=C/C(=O)O)C(c1ccc(OCc2ccc3ccccc3n2)cc1)c1ccc(OCc2ccc3ccccc3n2)cc1 | 27 | 
130 | CC(CCCO)(c1ccc(OCc2ccc3ccccc3n2)cc1)c1ccc(OCc2ccc3ccccc3n2)cc1 | 7 | 
65 | O=C(O)CON=C1CCC(c2ccc(OCc3ccc4ccccc4n3)cc2)(c2ccc(OCc3ccc4ccccc4n3)cc2)CC1 | 0 | 
47 | O=C([O-])C1CCC(c2ccc(OCc3ccc4ccccc4n3)cc2)(c2ccc(OCc3ccc4ccccc4n3)cc2)CC1.[Na+] |  | Inhibition (Rattus norvegicus [2]): 18%
50 | C/C(CCC(=O)O)=N\OC(c1ccc(OCc2ccc3ccccc3n2)cc1)c1ccc(OCc2ccc3ccccc3n2)cc1 |  | ED50 (Rattus norvegicus [3]): 1 mg/kg
 | CC(CCC(=O)[O-])(c1ccc(OCc2ccc3ccccc3n2)cc1)c1ccc(OCc2ccc3ccccc3n2)cc1.[Na+] |  | IC50 (Homo sapiens [1]): 20 nM; ED50 (Rattus norvegicus [3]): 3 mg/kg
 | O=C(O)C1CCC(c2ccc(OCc3ccc4ccccc4n3)cc2)(c2ccc(OCc3ccc4ccccc4n3)cc2)CC1 |  | IC50 (Homo sapiens [1]): 60 nM; Inhibition (Rattus norvegicus [2]): 0%
50 | CC(O)(c1ccc(OCc2ccc3ccccc3n2)cc1)c1ccc(OCc2ccc3ccccc3n2)cc1 | 0 | 
 | CC(CCC(=O)O)(c1ccc(OCc2cnc3ccccc3n2)cc1)c1ccc(OCc2cnc3ccccc3n2)cc1 | 14 | inhibition at 0.39 µM (Homo sapiens [4]; Homo sapiens): 47%
 | CC(SCC(=O)O)(c1ccc(OCc2ccc3ccccc3n2)cc1)c1ccc(OCc2ccc3ccccc3n2)cc1 | 0 | inhibition at 0.39 µM (Homo sapiens [4]; Homo sapiens): 62%
52 | CC(CCC(=O)O)(c1ccc(OCc2ccc3ccccc3n2)cc1)c1ccc(OCc2nc3ccccc3s2)cc1 (stereo not drawn) [listing 1 of 2 here] |  | 
21 | C/C(=N\OC(c1ccc(OCc2ccc3ccccc3n2)cc1)c1ccc(OCc2ccc3ccccc3n2)cc1)C(=O)O |  | ED50 (Rattus norvegicus [3]): 1.5 mg/kg
32 | O=C(O)CON=C(c1ccc(OCc2ccc3ccccc3n2)cc1)c1ccc(OCc2ccc3ccccc3n2)cc1 | 0 | 
 | CC(CC(c1ccc(OCc2ccc3ccccc3n2)cc1)c1ccc(OCc2ccc3ccccc3n2)cc1)C(=O)O (stereo not drawn) [listing 1 of 2 here] |  | inhibition at 0.39 µM (Homo sapiens [4]; Homo sapiens): 82%; Inhibition (Rattus norvegicus [2]): 43%
26 | O=C(O)CO/N=C/C=C(c1ccc(OCc2ccc3ccccc3n2)cc1)c1ccc(OCc2ccc3ccccc3n2)cc1 | 10 | 
20 | C/C(=N\OCC=C(c1ccc(OCc2ccc3ccccc3n2)cc1)c1ccc(OCc2ccc3ccccc3n2)cc1)C(=O)O | 42 | 
 | O=C(O)/C=N/OCC=C(c1ccc(OCc2ccc3ccccc3n2)cc1)c1ccc(OCc2ccc3ccccc3n2)cc1 | 17 | inhibition at 0.39 µM (Homo sapiens [4]; Homo sapiens): 100%
59 | C/C(=N\OCCC#CC(O)(c1ccc(OCc2ccc3ccccc3n2)cc1)c1ccc(OCc2ccc3ccccc3n2)cc1)C(=O)O | 40 | 

IC50 (Homo sapiens [1]; Homo sapiens) [nM] | Structure (SMILES) | inhibition in vivo at 3 mg/kg (Rattus norvegicus [2]) [%] | also measured
46 | CC(CC(c1ccc(OCc2ccc3ccccc3n2)cc1)c1ccc(OCc2ccc3ccccc3n2)cc1)C(=O)O (stereo not drawn) [listing 2 of 2 here] | 53 | 
35 | O=C(O)CO/N=C/C(c1ccc(OCc2ccc3ccccc3n2)cc1)c1ccc(OCc2ccc3ccccc3n2)cc1 |  | 
1900 | CCOC(=O)C1CCC(c2ccc(OCc3ccc4ccccc4n3)cc2)(c2ccc(OCc3ccc4ccccc4n3)cc2)CC1 |  | 
830 | CC(CCC(=O)O)(c1ccc(OCc2ccc3ccccc3c2)cc1)c1ccc(OCc2ccc3ccccc3c2)cc1 |  | 
40 | CC(CCC(=O)O)(c1ccc(OCc2ccc3cc(F)ccc3n2)cc1)c1ccc(OCc2ccc3cc(F)ccc3n2)cc1 | 42 | 
170 | CC(CC(=O)O)(c1ccc(OCc2ccc3ccccc3n2)cc1)c1ccc(OCc2ccc3ccccc3n2)cc1 | 0 | 
 | O=C(O)C#CC(O)(c1ccc(OCc2ccc3ccccc3n2)cc1)c1ccc(OCc2ccc3ccccc3n2)cc1 | 48 | inhibition at 0.39 µM (Homo sapiens [4]; Homo sapiens): 98%
170 | OC(c1ccc(OCc2ccc3ccccc3n2)cc1)c1ccc(OCc2ccc3ccccc3n2)cc1 | 2 | 
40 | CC(CC/C=N\OCC(=O)O)(c1ccc(OCc2ccc3ccccc3n2)cc1)c1ccc(OCc2ccc3ccccc3n2)cc1 | 0 | 
28 | CC(C)(/C=N/OCC(=O)O)C(c1ccc(OCc2ccc3ccccc3n2)cc1)c1ccc(OCc2ccc3ccccc3n2)cc1 | 42 | 
23 | CC(CCC(=O)O)(c1ccc(OCc2ccc3ccccc3n2)cc1)c1ccc(OCc2ccc3ccccc3n2)cc1 |  | ED50 (Rattus norvegicus [3]): 1.5 mg/kg
60 | O=C(O)CC(c1ccc(OCc2ccc3ccccc3n2)cc1)c1ccc(OCc2ccc3ccccc3n2)cc1 | 17 | 
 | Cn1c(COc2ccc(C(C)(CCC(=O)O)c3ccc(OCc4ccc5ccccc5n4)cc3)cc2)nc2ccccc21 (stereo not drawn) |  | IC50 (Homo sapiens [1]): 80 nM; Inhibition (Rattus norvegicus [2]): 0%
 | CC(CCC(=O)O)(c1ccc(OCc2ccc3ccccc3c2)cc1)c1ccc(OCc2ccc3ccccc3n2)cc1 (stereo not drawn) | 55 | inhibition at 0.39 µM (Homo sapiens [4]; Homo sapiens): 93%
 | CC(CCC(=O)O)(c1ccc(OCc2ccccn2)cc1)c1ccc(OCc2ccccn2)cc1 |  | inhibition at 0.39 µM (Homo sapiens [4]): 53%; inhibition in vivo at 3 mg/kg (Rattus norvegicus [3]): 0%
11 | O=C(O)CSC(c1ccc(OCc2ccc3ccccc3n2)cc1)(c1ccc(OCc2ccc3ccccc3n2)cc1)c1cccs1 [listing 1 of 2 here] |  | ED50 (Rattus norvegicus [3]): 1.1 mg/kg
 | C/C(=N\OCCC(C)(c1ccc(OCc2ccc3ccccc3n2)cc1)c1ccc(OCc2ccc3ccccc3n2)cc1)C(=O)O | 23 | inhibition at 0.39 µM (Homo sapiens [4]; Homo sapiens): 54%
68 | O=C(O)/C=N/OC(c1ccc(OCc2ccc3ccccc3n2)cc1)c1ccc(OCc2ccc3ccccc3n2)cc1 | 37 | 
30 | CC(/C=C/C(=O)O)=N\OC(c1ccc(OCc2ccc3ccccc3n2)cc1)c1ccc(OCc2ccc3ccccc3n2)cc1 | 27 | 
37 | C/C(=N\OC1CCC(c2ccc(OCc3ccc4ccccc4n3)cc2)(c2ccc(OCc3ccc4ccccc4n3)cc2)CC1)C(=O)O | 48 | 
100 | CC(C)(C(=O)O)C(c1ccc(OCc2ccc3ccccc3n2)cc1)c1ccc(OCc2ccc3ccccc3n2)cc1 | 50 | 

IC50 (Homo sapiens [1]; Homo sapiens) [nM] | Structure (SMILES) | inhibition in vivo at 3 mg/kg (Rattus norvegicus [2]) [%] | also measured
 | CC(CCCC(=O)O)(c1ccc(OCc2ccc3ccccc3n2)cc1)c1ccc(OCc2ccc3ccccc3n2)cc1 [listing 1 of 2 here] |  | IC50 (Homo sapiens [1]): 43 nM; Inhibition (Rattus norvegicus [2]): 32%
 | O=C(O)CSC(c1ccc(OCc2ccc3ccccc3n2)cc1)(c1ccc(OCc2ccc3ccccc3n2)cc1)c1cccs1 [listing 2 of 2 here] | 80 | 
 | Cn1c(COc2ccc(C(C)(CCC(=O)[O-])c3ccc(OCc4nc5ccccc5n4C)cc3)cc2)nc2ccccc21.[Na+] |  | Inhibition (Homo sapiens [4]): 59%; Inhibition (Rattus norvegicus [2]): 29%
58 | O=C(O)CSC(c1ccc(OCc2ccc3ccccc3n2)cc1)c1ccc(OCc2ccc3ccccc3n2)cc1 |  | 
 | CC(C(=O)[O-])(c1ccc(OCc2ccc3ccccc3n2)cc1)c1ccc(OCc2ccc3ccccc3n2)cc1.[Na+] |  | IC50 (Homo sapiens [1]): 37 nM; Inhibition (Rattus norvegicus [2]): 46%
 | Cn1c(COc2ccc(C(C)(CCC(=O)O)c3ccc(OCc4nc5ccccc5n4C)cc3)cc2)nc2ccccc21 |  | Inhibition (Homo sapiens [4]): 27%; Inhibition (Rattus norvegicus [2]): 0%
 | CC(CCC(=O)[O-])(c1ccc(OCc2ccc3ccccc3c2)cc1)c1ccc(OCc2ccc3ccccc3n2)cc1.[Na+] (stereo not drawn) |  | Inhibition (Rattus norvegicus [2]): 40%
90 | Cn1c(COc2ccc(C(C)(CCC(=O)[O-])c3ccc(OCc4ccc5ccccc5n4)cc3)cc2)nc2ccccc21.[Na+] (stereo not drawn) |  | Inhibition (Rattus norvegicus [2]): 10%
32 | CC(CCCC(=O)O)(c1ccc(OCc2ccc3ccccc3n2)cc1)c1ccc(OCc2ccc3ccccc3n2)cc1 [listing 2 of 2 here] | 35 | 
87 | O=C(O)CSC(c1ccccc1)(c1ccc(OCc2ccc3ccccc3n2)cc1)c1ccc(OCc2ccc3ccccc3n2)cc1 |  | 
 | CC(CCC(=O)O)(c1ccc(OCc2nc3ccccc3s2)cc1)c1ccc(OCc2nc3ccccc3s2)cc1 [listing 1 of 2 here] |  | IC50 (Homo sapiens [1]): 50 nM
46 | CC(CCC(=O)O)(c1ccc(OCc2nc3ccccc3s2)cc1)c1ccc(OCc2nc3ccccc3s2)cc1 [listing 2 of 2 here] | 0 | 
 | O=C([O-])CC(c1ccc(OCc2ccc3ccccc3n2)cc1)c1ccc(OCc2ccc3ccccc3n2)cc1.[Na+] |  | IC50 (Homo sapiens [1]): 70 nM; Inhibition (Rattus norvegicus [2]): 30%
32 | CC(C(=O)O)(c1ccc(OCc2ccc3ccccc3n2)cc1)c1ccc(OCc2ccc3ccccc3n2)cc1 |  | Inhibition (Rattus norvegicus [2]): 25%
 | O=C([O-])C=C(c1ccc(OCc2ccc3ccccc3n2)cc1)c1ccc(OCc2ccc3ccccc3n2)cc1.[Na+] |  | IC50 (Homo sapiens [1]): 40 nM; Inhibition (Rattus norvegicus [2]): 19%
 | OC(c1ccc(OCc2ccc3ccccc3n2)cc1)(c1ccc(OCc2ccc3ccccc3n2)cc1)c1cccs1 | 0 | inhibition at 0.39 µM (Homo sapiens [4]; Homo sapiens): 87%
 | CC(CCC(=O)O)(c1ccc(OCc2ccc3ccccc3n2)cc1)c1ccc(OCc2nc3ccccc3s2)cc1 (stereo not drawn) [listing 2 of 2 here] | 35 | inhibition at 0.39 µM (Homo sapiens [4]; Homo sapiens): 95%
35 | C/C(=N\OCCCC(C)(c1ccc(OCc2ccc3ccccc3n2)cc1)c1ccc(OCc2ccc3ccccc3n2)cc1)C(=O)O | 4 | 
 | OCC1CCC(c2ccc(OCc3ccc4ccccc4n3)cc2)(c2ccc(OCc3ccc4ccccc4n3)cc2)CC1 |  | inhibition at 0.39 µM (Homo sapiens [4]; Homo sapiens): 28%
 | O=C(O)/C=N/OC1CCC(c2ccc(OCc3ccc4ccccc4n3)cc2)(c2ccc(OCc3ccc4ccccc4n3)cc2)CC1 | 15 | inhibition at 0.39 µM (Homo sapiens [4]; Homo sapiens): 54%
